Laboratory results from patent publication US8466167B2, “Compounds and compositions as TLR activity modulators” (IRM LLC, priority 2008, dated 2013).
pEC50: −log10 of the molar value. Where two headings read alike, the source gives them in different places.

What was measured:
human TLR8 = biological target: T1, human TLR8 (Homo sapiens, UniProt Q9NR97); experiment: Reporter gene assay, HEK293-TLR8 (NF-kB-driven luciferase); format: cell-based; details: HEK293-TLR8; read-out: EC50 in HEK293-TLR8 assay
T1 construct: expressed in transfected cells; host or cells: HEK 293
T1 sequence (Q9NR97 27-1041): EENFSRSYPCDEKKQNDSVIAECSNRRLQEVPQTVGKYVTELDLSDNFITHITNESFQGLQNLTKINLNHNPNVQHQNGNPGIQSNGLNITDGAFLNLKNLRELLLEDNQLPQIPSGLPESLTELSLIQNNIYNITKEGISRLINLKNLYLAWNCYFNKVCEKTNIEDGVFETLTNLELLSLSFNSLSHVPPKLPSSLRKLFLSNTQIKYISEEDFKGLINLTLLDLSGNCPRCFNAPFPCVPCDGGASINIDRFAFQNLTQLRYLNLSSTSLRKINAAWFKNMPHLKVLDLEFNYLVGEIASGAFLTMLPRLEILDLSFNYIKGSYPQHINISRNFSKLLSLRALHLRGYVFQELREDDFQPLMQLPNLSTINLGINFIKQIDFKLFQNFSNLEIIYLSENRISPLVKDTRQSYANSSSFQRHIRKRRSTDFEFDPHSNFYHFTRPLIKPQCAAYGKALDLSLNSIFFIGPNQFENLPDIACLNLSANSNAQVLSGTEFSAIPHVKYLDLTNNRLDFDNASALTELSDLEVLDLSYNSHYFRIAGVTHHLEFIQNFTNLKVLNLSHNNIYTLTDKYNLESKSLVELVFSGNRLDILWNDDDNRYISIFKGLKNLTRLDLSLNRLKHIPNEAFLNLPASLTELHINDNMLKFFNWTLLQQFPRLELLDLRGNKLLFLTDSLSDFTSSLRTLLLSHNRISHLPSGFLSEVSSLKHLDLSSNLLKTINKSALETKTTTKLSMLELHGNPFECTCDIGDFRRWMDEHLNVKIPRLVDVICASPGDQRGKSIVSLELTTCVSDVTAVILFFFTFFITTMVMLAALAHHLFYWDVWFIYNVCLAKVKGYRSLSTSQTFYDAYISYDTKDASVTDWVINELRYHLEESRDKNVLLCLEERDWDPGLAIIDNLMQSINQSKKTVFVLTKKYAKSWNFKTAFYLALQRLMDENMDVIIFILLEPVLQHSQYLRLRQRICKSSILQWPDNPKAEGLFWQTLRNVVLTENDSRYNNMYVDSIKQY
Procedure: (§1) Human embryonic kidney 293 (HEK 293) cells are stably transfected with human TLR7 or TLR8 and an NF-kB-driven luciferase reporter vector (pNifty-Luciferase). As a control assay, normal Hek293 transfected with pNifty-Luc are used. Cells are cultured in DMEM supplemented with 2 mM L-glutamine, 10% heart inactivated FBS, 1% penicillin and streptomycin, 2 μg/ml puromycin (InvivoGen #ant-pr-5) and 5 μg/ml of blasticidin (Invitrogen #46-1120). Bright-Glo™ Luciferase assay buffer and substrate are supplied by Promega #E263B and #E264B (assay substrate and buffer respectively). 384 well clear-bottom plates are supplied by Greiner bio-one (#789163-G) and are GNF custom bar-coded plates.
(§2) Cells are plated at 25,000 cells/well in 384-well plates in a final volume of 50 μl of media. Cells are allowed to adhere to the plates after overnight (18 hours) culture at 37° C. 5% CO2. Serially diluted experimental and positive control compounds are then dispensed to each well and incubated for 7 hours at 37° C. 5% CO2. Cells stimulated with DMSO alone also serve as negative controls. After the incubation, 30 μl of the pre-mix assay buffer and substrate buffer are added to each well according to manufacturer's instructions. The luminescence signal is read on a CLIPR machine with an integration time of 20 seconds per plate.
(§3) Dose response curves are generated for each compound and EC50 values were determined as the concentration that gives 50% of the maximal signal.

human PBMC = experiment: Human peripheral blood mononuclear cell assay, IL-6 (IL-6 hPBMC); format: cell-based; details: IL-6 levels
Procedure: The bioactivity of the described compounds are tested in the human peripheral blood assay (human PBMC) using a panel of independent normal human donors according to approved guidelines by the institutional review committee. Human PBMC are isolated from freshly peripheral blood using a Ficoll density gradient (GE healthcare 17-1440-03). 30-35 mLs of peripheral human blood are layered onto 15 mLs of Ficoll in 50 ml conical tubes, followed by centrifugation at 1800 rpm (Eppendorf Centrifuge 5810R with biohazard caps over the tube buckets) at room temperature for 30 minutes with no acceleration and no brake. The buffy layers are then collected and transferred onto new 50 ml conical tubes and washed twice in complete media consisting of RAMI 1640 (11875085 from Invitrogen Corporation, Carlsbad, Calif.) supplemented with 10% heat inactivated fetal bovine serum (Gibco 10099-141), 1% Pen-Strep (Gibco#15140-122), 1 mM non essential amino acids (Gibco#11140-050), 1 mM sodium pyruvate (Gibco#11360-070), 2 mM L-Glutamine (Gibco#25030-081) and 1 mM HEPES (Gibco#15630-080). Viable cells are then counted using trypan blue staining, plated in 96 well flat bottom plates (Becton Dickinson #353070) at 2×10^5 cells per well in 200 μl total volume of complete media. Compounds are then added in a 10 point dose response format starting at 100 μM, 3 fold dilution. Negative controls wells received equal concentration of DMSO. Culture supernatants are collected after 18-24 hours incubation at 37° C., 5% CO2, stored at −20° C. until further use.
IL-6 levels in the culture supernatants are measured using a Luminex kit (Biorad). Data analysis is performed using Prism software from GraphPad (San Diego, Calif.). Dose response curves are generated for each compound and EC50 values are determined as the concentration that gives 50% of the maximal signal.

human TLR7 = biological target: T2, human TLR7 (Homo sapiens, UniProt Q9NYK1); experiment: Reporter gene assay, HEK293-TLR7 (NF-kB-driven luciferase); format: cell-based
T2 construct: expressed in transfected cells; host or cells: HEK 293
T2 sequence (Q9NYK1 27-1049): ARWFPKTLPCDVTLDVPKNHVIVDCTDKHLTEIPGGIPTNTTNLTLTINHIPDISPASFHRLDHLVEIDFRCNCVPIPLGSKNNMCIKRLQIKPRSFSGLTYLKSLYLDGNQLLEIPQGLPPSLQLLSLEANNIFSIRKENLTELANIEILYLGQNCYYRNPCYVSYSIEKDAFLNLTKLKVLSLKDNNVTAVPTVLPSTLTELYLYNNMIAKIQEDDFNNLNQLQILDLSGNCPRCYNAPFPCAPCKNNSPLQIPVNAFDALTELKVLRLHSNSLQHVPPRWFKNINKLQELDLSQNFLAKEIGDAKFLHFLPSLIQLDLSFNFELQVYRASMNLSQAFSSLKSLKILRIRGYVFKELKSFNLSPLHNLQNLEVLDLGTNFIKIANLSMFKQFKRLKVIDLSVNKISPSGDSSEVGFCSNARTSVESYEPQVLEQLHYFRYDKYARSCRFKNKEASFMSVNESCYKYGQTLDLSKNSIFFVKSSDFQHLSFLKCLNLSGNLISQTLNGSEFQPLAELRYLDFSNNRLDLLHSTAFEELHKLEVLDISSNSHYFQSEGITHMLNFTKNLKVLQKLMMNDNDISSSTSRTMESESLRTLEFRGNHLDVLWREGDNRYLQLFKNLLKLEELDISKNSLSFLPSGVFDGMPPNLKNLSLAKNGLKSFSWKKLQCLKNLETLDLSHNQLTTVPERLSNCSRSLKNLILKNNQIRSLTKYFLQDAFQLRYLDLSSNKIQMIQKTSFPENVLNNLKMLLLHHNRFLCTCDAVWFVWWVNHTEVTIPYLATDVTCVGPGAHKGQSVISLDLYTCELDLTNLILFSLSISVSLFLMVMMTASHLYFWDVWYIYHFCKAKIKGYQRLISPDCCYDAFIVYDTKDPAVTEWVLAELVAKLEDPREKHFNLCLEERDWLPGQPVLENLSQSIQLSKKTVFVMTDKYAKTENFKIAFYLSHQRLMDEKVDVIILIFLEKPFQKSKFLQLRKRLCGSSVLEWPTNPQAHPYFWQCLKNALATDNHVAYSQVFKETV
Procedure: as §1, §2, §3

[1] = system: N. meningitidis serogroup B strain NZ98; experiment: In vivo enhancement of immune response to 3MenB vaccine, serum bactericidal antibody (SBA) titer; details: for protective response in the mice (SBA titer of >1000 correlates with protection): 100 μg compound with 3MenB/MF59, NZ98 strain
Procedure: In a second experiment, the dose response of one compound, Example No. 47, was tested using the same protocol. […] The SBA titers were measured in all cases using the standard CFU method. The dose of each compound in μg is indicated on the left of FIG. 2.
FIG. 5 summarizes the data from the six total experiments. A titer of >1000 correlates with immunization providing protection against the pathogen tested in the SBA titer (i.e., the NZ/98 N. meningitidis serogroup B strain).

[2] = HEK293-TLR7, read-out: EC50 in HEK293-TLR7 assay

SMILES	pEC50 (human TLR8)	pEC50 (human PBMC)	pEC50 (human TLR7; [2])	protective response in the mice (SBA titer of >1000 correlates with protection) [1]	difference in SBA titer, immunization with a CpG oligo versus the compound ([1]; mice, by p-value)	pEC50 (human TLR7; TLR-7 stimulation, read-out: Human TLR-7 EC50)
Cc1ccc2c(c1)nc(N)c1ncccc12 [Example 5, 8-methylbenzo[f][1,7]naphthyridin-5-amine]	5.05	6.40	4.80			
Nc1nc2ccccc2c2cccnc12 [Example 1, Benzo[f][1,7]naphthyridin-5-amine]	4.85	6.08	< 4.00			
Cc1ccc(CCc2cnc3c(N)nc4ccccc4c3c2)c(C)c1 [Example 47, 2-(2,4-dimethylphenethyl)benzo[f][1,7]naphthyridin-5-amine]				protective response	did not produce a statistically significant difference	6.44
Nc1nc2cc(F)ccc2c2cccnc12 [Example 14, 8-fluorobenzo[f][1,7]naphthyridin-5-amine]	4.43	5.20				
Nc1nc2ccccc2c2cc(CCc3ccccc3)cnc12 [Example 33, 2-phenethylbenzo[f][1,7]naphthyridin-5-amine]		5.64	5.61			
Cc1ccc2c(c1)nc(N)c1ncc(CCc3ccc(N(C)C)cc3)cc12 [Example 169, 2-(4-(dimethylamino)phenethyl)-8-methylbenzo[f][1,7]naphthyridin-5-amine]				protective response		
COc1ccc(CCc2cnc3c(N)nc4cc(C)ccc4c3c2)c(C)c1 [Example 49, 2-(4-methoxy-2-methylphenethyl)-8-methylbenzo[f][1,7]naphthyridin-5-amine]				protective response		
CCc1cnc2c(N)nc3ccccc3c2c1 [Example 30, 2-ethylbenzo[f][1,7]naphthyridin-5-amine]	4.89	5.64	5.06			
